Data from patent US12428405B2, “Chalcone-based chemotherapeutic compound for triple negative breast cancer” (QATAR UNIVERSITY, priority 2019, dated 2025).
“Also recorded” adds a separate entry of the source. Like-named read-outs stand apart in the source and are kept apart here.

Legend:
HNME-E6/E7 [1] = assay: Morphological examination of normal cells; type: cell-based, human; conditions: 5 μM; 48 hours
Description: (§1) MCF-7, MDA-MB-231, MDA-MB-468 and HNME-E6/E7 cells were seeded in a 6-well plates at a concentration of 200,000-300,000 cells/well and were incubated overnight. After incubation, cells were treated with different compounds.

HNME-E6/E7 [2] = assay: MTT cell viability on immortalized normal mammary epithelial cells; type: cell-based, human; conditions: normal cell line; 48 hours of treatment; Mean ± SEM (n = 3 × 3)
Text: (§2) Breast cancer cell lines including MDA-MB-231, MDA-MB-468, MCF-7, BT-474 and SK-BR-3 were obtained from the American Type Tissue Culture (ATCC) and maintained in complete cell culture media Gibco® RPMI 1640 (Thermo Fisher Scientific, USA) supplemented with 10% fetal bovine serum (PAN-Biotech, Aidenbach, Bavaria, Germany) and 1% penicillin/streptomycin (1×) antibiotics (Thermo Fisher Scientific, USA). Human normal mammary epithelial cells immortalized by E6/E7 of HPV type 16 (HNME-E6/E7) were used to predict potential safety of the compounds (125, 126). They were maintained in Gibco® Keratinocyte-SFM (1×) media. All cells were incubated in 5% CO2 at 37° C. incubator. Cells were maintained by routine sub-culturing in T-75 and T25 filtered tissue culture flasks.
(§3) MDA-MB-231, MDA-MB-468, MCF-7, BT-474 and HNME-E6/E7 cells were seeded overnight in 96-well plates at a concentration of 8000-10,000/well depending on their pre-calculated cell density and were incubated overnight. At 24 hours, media was replaced with fresh one. The treatment wells included 6-8 different concentrations of the compounds ranging between 0.25 μM-160 μM. […] Absorbance was recorded at a wavelength of 562 nm after 3 minutes of shaking using Infinite 200 PRO Microplate Reader (Tecan, Switzerland). Percentage of viable cells was calculated using the following formula: […]

MDA-MB-231 [3] = assay: Morphological examination; type: cell-based; conditions: 10 μM
Description: as §1

MDA-MB-468 [4] = assay: Morphological examination; type: cell-based; conditions: 10 μM; 24 hours
Description: as §1

MCF-7 [5] = assay: Morphological examination; type: cell-based; conditions: 10 μM; 48 hours
Description: as §1

MDA-MB-468 [6] = assay: Soft agar colony formation assay; type: cell-based; conditions: for less colonies as compared to untreated: 5 and 10 μM, 14 days post treatment
MDA-MB-231 [7] = assay: Cell cycle analysis (flow cytometry); type: cell-based; conditions: 48 hours
Description: (§4) The MDA-MB-231, MDA-MB-468 and MCF-7 cell lines were seeded on 6-well plates at a concentration of 200,000 cells per well and were maintained in culture supplemented with 10% fetal bovine serum for 8-10 hours. The same day, media was removed and cells were incubated overnight with serum free media. Second day, cells were treated with the compounds. Adherent and floating cell populations were harvested at 48 hours after treatment with different concentrations of the compounds and counted.
(§5) Afterward, cells were washed with cold PBS once, centrifuged at 4° C. and fixed with 1.5 ml cold 70% ethanol added drop wise while slowly vortexing. Samples were then stored at […] Following fixation, cells were pelleted and washed with ice-cold PBS. Equal aliquots were collected and resuspended in 300 μl of Tali® Cell Cycle Kit and incubated at 37 C. with slow shaking speed for 30 minutes in the dark. Accuri C6 flow cytometer (BD Biosciences, USA) was used to analyze the cells. The FlowJo V10 software was used to process and evaluate the results.

MDA-MB-468 [8] = assay: Cell cycle analysis (flow cytometry); type: cell-based; conditions: 48 hours
Description: as §4, §5

MCF-7 [9] = assay: Cell cycle analysis (flow cytometry); type: cell-based; conditions: 48 h; 10 μM of compound 13, 5 μM of compound 14
Description: as §4, §5

[10] = tested on: TNBC (MDA-MB-231 and MDA-MB-231) and estrogen positive (MCF-7 and BT-474) cell lines; assay: MTT cell viability, breast cancer cell line panel (summary statements); type: cell-based
Text: as §2, §3

MDA-MB-231 [11] = assay: Matrigel invasion assay; type: cell-based; conditions: 24 hours; 13 (10 μM), 14 (5 μM)
Description: (§6) Matrigel-coated invasion chamber plates (CORNING, USA) were used to study the invasive property of MDA-MB-231, MDA-MB-468 and MCF-7 cancer cells. Cells were seeded at a concentration of 5×10^4 cells/0.5 ml in each upper chamber well and maintained in RPMI serum free medium. Complete RPMI medium with 10% FBS was added to each base well at 600 μl/well to act as an attractant to the cells in the upper chamber. After 24 hours, cells were fixed using a 3.70% formaldehyde as a fixator for 5 minutes. […] Thereafter, cells were stained using 5% crystal violet dissolved in ethanol and were incubated for 5 minutes followed by several rounds of washing with PBS. Cells were then visualized under the microscope and 4 pictures/well were taken from different zones. ImageJ software was used to quantify the number of invaded cells in each well.

MDA-MB-468 [12] = assay: Matrigel invasion assay; type: cell-based; conditions: 24 hours; 13 (10 μM), 14 (5 μM)
Description: as §6

MCF-7 [13] = assay: Matrigel invasion assay; type: cell-based; conditions: 24 hours; 13 (10 μM), 14 (5 μM)
Description: as §6

MDA-MB-231 [14] = assay: Migration (wound healing) assay; type: cell-based; conditions: for IC50: 24 hours of treatment, 5 concentrations, two independent experiments, read-out: Migratory IC50 MDA-MB-231; for activity at 5 µM: 24 hours post treatment, control = 100, Mean ± SEM (N = 2 × 2), read-out: % migration
Description: MDA-MB-231 cells were seeded in 12-wells plates at a concentration of 500,000 cells/well and were incubated in complete RPMI culture medium until covering the well and reaching around 90-100% confluency. Following, cells were serum starved for 4 hours and a 200 μl pipette tip was used to create the scratch followed by cell washing with PBS twice. […] Microscopic pictures were then taken, and cell migration was quantified based on the wound diameter at 24 hours minus the initial diameter at time zero, as represented by the following equation: % Migration=[…]

MCF-7 [15] = assay: Soft agar colony formation assay; type: cell-based; conditions: for less colonies as compared to untreated: 5 and 10 μM, 14 days post treatment; for colony formation (in words): MCF-7, soft agar

SMILES | cell morphology of normal cells (HNME-E6/E7 [1]) | LD50 HNME-E6/E7 (HNME-E6/E7 [2]) [µM] | cell morphology (MDA-MB-231 [3]; 24 hours) | cell morphology (MDA-MB-231 [3]; 48 hours) | cell morphology (MDA-MB-468 [4]) | cell morphology (MCF-7 [5]) | less colonies as compared to untreated (MDA-MB-468 [6]) [%] | cell cycle arrest (in words) (MCF-7 [9]) | reduction of cancer cells invasion vs DMSO control (MDA-MB-231 [11]) [%] | reduction of cancer cells invasion vs DMSO control (MDA-MB-468 [12]) [%] | reduction of cancer cells invasion vs DMSO control (MCF-7 [13]) [%] | IC50 (MDA-MB-231 [14]; Homo sapiens, MDA-MB-231, 24 h) [µM] | activity at 5 µM (MDA-MB-231 [14]; Homo sapiens, MDA-MB-231, 5 μM) [%] | less colonies as compared to untreated (MCF-7 [15]) [%] | colony formation (in words) (MCF-7 [15]) | other results
COc1cccc(C(=O)/C=C/c2ccc(N(CCCl)CCCl)cc2)c1 [Compound 14, (E)-3-(4-(Bis(2-chloroethyl)amino)phenyl)-1-(3-methoxyphenyl) prop-2-en-1-one] | induced morphological changes | 20.67 ± 1.50 | did not induce a significant difference | change in cell shape | obvious change in cell shape | induced cell shrinkage | ~100 | mainly noticed in the invasive cell lines but not in the noninvasive, MCF-7, cells | 82.54 | 59.28 | 57.26 | 2.86 ± 0.2 | 32.11 ± 0.17 | ~100 | completely inhibited; also recorded: better effects on MCF-7 as compared to colchicine | colony formation (in words) (MDA-MB-468 [6]; MDA-MB-468, soft agar): completely inhibited; cells arrested at the G2/M phase (cells percentage) (MDA-MB-231 [7]; 5 μM of compound 14): 47.27±7.869%; cells arrested at the G2/M phase (cells percentage) (MDA-MB-468 [8]; 5 μM of compound 14): 66.45±4.25%; IC50 ([10]; TNBC and estrogen positive cell lines, read-out: anti-proliferative IC50 values, range over cell lines): 3.94 to 9.22 µM; IC50 (MDA-MB-231 [14]): 2.86 ± 0.197 µM; inhibition at 5 µM (MDA-MB-231 [14]; Homo sapiens, MDA-MB-231, 5 μM, 24 hours, read-out: inhibition of cell migration): 67.89 ± 0.17%
CS(=O)(=O)c1ccc(C(=O)/C=C/c2ccc(N(CCCl)CCCl)cc2)cc1 [Compound 13, (E)-3-(4-(Bis(2-chloroethyl)amino)phenyl)-1-(4-(methylsulfonyl)phenyl) prop-2-en-1-one] | induced morphological changes | 32.32 ± 3.93 | look more spherical in shape and to lose their mesenchymal fibroblastic property | Mainly single circular cells were obvious | obvious change in cell shape | triggered cells to become larger in shape | ~100 | mainly noticed in the invasive cell lines but not in the noninvasive, MCF-7, cells | 79.57 | 48.45 | 45.70 | 5.71 ± 0.57 | 59.5 ± 2.75 | ~100 | better effects on MCF-7 as compared to colchicine | cell cycle arrest at the S phase (cells percentage) (MDA-MB-231 [7]; 10 μM of compound 13): 28.7±1.87%; cell cycle arrest at the S phase (cells percentage) (MDA-MB-468 [8]; 10 μM of compound 13): 46.8±5.39%; selectivity, approximately similar between different breast cancer cell lines ([10]; versus HNME-E6/E7 normal cells): ~3
